Key:
Assay type in all cases: in vivo
[1] = test system: rice (Oryza sativa); experiment: Test B flooded paddy test; conditions: for Plant response rating, Flood, Rice: 250 g ai/ha, flooded paddy test, visual rating on 0 to 100 scale (0 no effect, 100 complete control) after 13 to 15 days; for Plant response rating, Rice: Flood (flooded paddy test), 13 to 15 days
Procedure, shortened: (§1)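 Each compound is added to standing floodwater (3 cm above soil, maintained) in pots of 2-leaf-stage plants; greenhouse exposure lasts 13–15 d before visual comparison with controls on a 0–100 control scale.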

[2] = test system: umbrella sedge (Cyperus difformis); experiment: Test B flooded paddy test; conditions: for Plant response rating, Flood, Sedge, Umbrella: 250 g ai/ha, flooded paddy test, visual rating on 0 to 100 scale (0 no effect, 100 complete control) after 13 to 15 days; for Plant response rating, Sedge, Umbrella: Flood (flooded paddy test), 13 to 15 days
Procedure, shortened: as §1

[3] = test system: barnyardgrass (Echinochloa crus-galli); experiment: Test B flooded paddy test; conditions: for Plant response rating, Flood, Barnyardgrass: 250 g ai/ha, flooded paddy test, visual rating on 0 to 100 scale (0 no effect, 100 complete control) after 13 to 15 days; for Plant response rating, Barnyardgrass: Flood (flooded paddy test), 13 to 15 days
Procedure, shortened: as §1

[4] = test system: ducksalad (Heteranthera limosa); experiment: Test B flooded paddy test; conditions: for Plant response rating, Flood, Ducksalad: 250 g ai/ha, flooded paddy test, visual rating on 0 to 100 scale (0 no effect, 100 complete control) after 13 to 15 days; for Plant response rating, Ducksalad: Flood (flooded paddy test), 13 to 15 days
Procedure, shortened: as §1

[5] = test system: velvetleaf (Abutilon theophrasti); experiment: Test A pre-/postemergence plant response
Procedure, shortened: (§2)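 Greenhouse trial, ~10 days. Soil (loam/sand) sprayed preemergence after seeding; emerged plants (1–2 leaf, 2–10 cm) sprayed postemergence in parallel. Response = visual injury vs untreated control, 0–100.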

[6] = test system: giant foxtail (Setaria faberii); experiment: Test A pre-/postemergence plant response
Procedure, shortened: as §2

[7] = test system: barnyardgrass (Echinochloa crus-galli); experiment: Test A pre-/postemergence plant response
Procedure, shortened: as §2

[8] = test system: corn (Zea mays); experiment: Test A pre-/postemergence plant response
Procedure, shortened: as §2

[9] = test system: pigweed (Amaranthus retroflexus); experiment: Test A pre-/postemergence plant response
Procedure, shortened: as §2

[10] = test system: large crabgrass (Digitaria sanguinalis); experiment: Test A pre-/postemergence plant response
Procedure, shortened: as §2

[11] = test system: morningglory (Ipomoea spp.); experiment: Test A pre-/postemergence plant response
Procedure, shortened: as §2

[12] = test system: wheat (Triticum aestivum); experiment: Test A pre-/postemergence plant response
Procedure, shortened: as §2

[13] = 62 g ai/ha, scale of 0 to 100 where 0 is no effect and 100 is complete control
[14] = 125 g ai/ha, scale 0 to 100, 0 is no effect, 100 is complete control
[15] = Flood, 31 g ai/ha, scale 0 to 100 (0 no effect, 100 complete control)
[16] = Postemergence, 125 g ai/ha, 0 to 100 scale where 0 is no effect and 100 is complete control
[17] = Postemergence, 500 g ai/ha, visual injury, 0 to 100 scale (0 no effect, 100 complete control), approx. ten days
[18] = Preemergence, 125 g ai/ha, 0 to 100 scale, 0 = no effect, 100 = complete control
[19] = Preemergence, 500 g ai/ha, 0 to 100 scale, 0 = no effect, 100 = complete control
[20] = 62 g ai/ha, scale 0 to 100, 0 is no effect, 100 is complete control
[21] = Postemergence, 125 g ai/ha, visual injury, 0 to 100 scale (0 no effect, 100 complete control), approx. ten days
[22] = Postemergence, 500 g ai/ha, 0 to 100 scale, 0 = no effect, 100 = complete control, approx. ten days
[23] = Preemergence, 500 g ai/ha, visual injury, 0 to 100 scale (0 no effect, 100 complete control), approx. ten days
[24] = 31 g ai/ha, scale of 0 to 100 where 0 is no effect and 100 is complete control

CCn1c(-c2ccccc2)ncc(C(=O)C2=C(O)C3CCC(C3)C2=O)c1=O (stereo not drawn) [Compound 239]
Plant response rating, Flood, Rice [1]: 0 | Plant response rating, Rice [1, 13]: 0 | Plant response rating, Rice [1, 14]: 0 | Rice plant response rating [1, 15]: 0 | Plant response rating, Flood, Sedge, Umbrella [2]: 75 | Plant response rating, Sedge, Umbrella [2, 13]: 0 | Plant response rating, Sedge, Umbrella [2, 14]: 40 | Sedge, Umbrella plant response rating [2, 15]: 0 | Plant response rating, Flood, Barnyardgrass [3]: 15 | Plant response rating, Barnyardgrass [3, 13]: 0 | Plant response rating, Barnyardgrass [3, 14]: 0 | Barnyardgrass plant response rating [3, 15]: 0 | Plant response rating, Flood, Ducksalad [4]: 80 | Plant response rating, Ducksalad [4, 13]: 0 | Plant response rating, Ducksalad [4, 14]: 70 | Ducksalad plant response rating [4, 15]: 0 | Plant response rating, Velvetleaf [5, 16]: 100 | Velvetleaf plant response rating [5, 17]: 100 | Plant response rating, Velvetleaf [5, 18]: 80 | Plant response rating, Velvetleaf [5, 19]: 100 | Plant response rating, Foxtail, Giant [6, 16]: 70 | Foxtail, Giant plant response rating [6, 17]: 80 | Plant response rating, Foxtail, Giant [6, 18]: 20 | Plant response rating, Foxtail, Giant [6, 19]: 70 | Plant response rating, Barnyardgrass [7, 16]: 90 | Barnyardgrass plant response rating [7, 17]: 90 | Plant response rating, Barnyardgrass [7, 18]: 20 | Plant response rating, Barnyardgrass [7, 19]: 80 | Plant response rating, Corn [8, 16]: 30 | Corn plant response rating [8, 17]: 30 | Plant response rating, Corn [8, 18]: 0 | Plant response rating, Corn [8, 19]: 0 | Plant response rating, Pigweed [9, 16]: 80 | Pigweed plant response rating [9, 17]: 90 | Plant response rating, Pigweed [9, 18]: 70 | Plant response rating, Pigweed [9, 19]: 100 | Plant response rating, Crabgrass, Large [10, 16]: 80 | Crabgrass, Large plant response rating [10, 17]: 90 | Plant response rating, Crabgrass, Large [10, 18]: 70 | Plant response rating, Crabgrass, Large [10, 19]: 100 | Plant response rating, Morningglory [11, 16]: 100 | Morningglory plant response rating [11, 17]: 100 | Plant response rating, Morningglory [11, 19]: 50 | Plant response rating, Wheat [12, 16]: 0 | Wheat plant response rating [12, 17]: 0 | Plant response rating, Wheat [12, 18]: 0 | Plant response rating, Wheat [12, 19]: 30

Cc1c(Cl)cccc1-n1c(-c2ccccc2)ncc(C(=O)C2=C(O)CCCC2=O)c1=O [Compound 40]
Plant response rating, Flood, Rice [1]: 25 | Plant response rating, Rice [1, 20]: 0 | Plant response rating, Flood, Sedge, Umbrella [2]: 85 | Plant response rating, Sedge, Umbrella [2, 20]: 70 | Plant response rating, Flood, Barnyardgrass [3]: 40 | Plant response rating, Barnyardgrass [3, 20]: 0 | Plant response rating, Flood, Ducksalad [4]: 90 | Plant response rating, Ducksalad [4, 20]: 0 | Velvetleaf plant response rating [5, 21]: 100 | Plant response rating, Velvetleaf [5, 22]: 100 | Plant response rating, Velvetleaf [5, 18]: 70 | Plant response rating, Velvetleaf [5, 23]: 100 | Foxtail, Giant plant response rating [6, 21]: 90 | Plant response rating, Foxtail, Giant [6, 22]: 100 | Plant response rating, Foxtail, Giant [6, 18]: 50 | Plant response rating, Foxtail, Giant [6, 23]: 90 | Barnyardgrass plant response rating [7, 21]: 90 | Plant response rating, Barnyardgrass [7, 22]: 90 | Plant response rating, Barnyardgrass [7, 18]: 10 | Plant response rating, Barnyardgrass [7, 23]: 100 | Corn plant response rating [8, 21]: 0 | Plant response rating, Corn [8, 22]: 50 | Plant response rating, Corn [8, 18]: 0 | Plant response rating, Corn [8, 23]: 0 | Pigweed plant response rating [9, 21]: 100 | Plant response rating, Pigweed [9, 22]: 100 | Plant response rating, Pigweed [9, 18]: 70 | Plant response rating, Pigweed [9, 23]: 90 | Crabgrass, Large plant response rating [10, 21]: 90 | Plant response rating, Crabgrass, Large [10, 22]: 100 | Plant response rating, Crabgrass, Large [10, 18]: 60 | Plant response rating, Crabgrass, Large [10, 23]: 100 | Morningglory plant response rating [11, 21]: 50 | Plant response rating, Morningglory [11, 22]: 100 | Plant response rating, Morningglory [11, 18]: 10 | Plant response rating, Morningglory [11, 23]: 80 | Wheat plant response rating [12, 21]: 0 | Plant response rating, Wheat [12, 22]: 0 | Plant response rating, Wheat [12, 18]: 0 | Plant response rating, Wheat [12, 23]: 0

O=C1CCCC(O)=C1C(=O)c1cnc(-c2ccsc2)n(-c2ccccc2)c1=O [Compound 56]
Plant response rating, Flood, Rice [1]: 20 | Plant response rating, Rice [1, 24]: 0 | Plant response rating, Rice [1, 13]: 0 | Plant response rating, Rice [1, 14]: 15 | Plant response rating, Flood, Sedge, Umbrella [2]: 75 | Plant response rating, Sedge, Umbrella [2, 24]: 30 | Plant response rating, Sedge, Umbrella [2, 13]: 40 | Plant response rating, Sedge, Umbrella [2, 14]: 60 | Plant response rating, Flood, Barnyardgrass [3]: 35 | Plant response rating, Barnyardgrass [3, 24]: 10 | Plant response rating, Barnyardgrass [3, 13]: 15 | Plant response rating, Barnyardgrass [3, 14]: 20 | Plant response rating, Flood, Ducksalad [4]: 50 | Plant response rating, Ducksalad [4, 24]: 0 | Plant response rating, Ducksalad [4, 13]: 20 | Plant response rating, Ducksalad [4, 14]: 40 | Velvetleaf plant response rating [5, 21]: 100 | Plant response rating, Velvetleaf [5, 22]: 100 | Plant response rating, Velvetleaf [5, 18]: 80 | Plant response rating, Velvetleaf [5, 23]: 100 | Foxtail, Giant plant response rating [6, 21]: 80 | Plant response rating, Foxtail, Giant [6, 22]: 90 | Plant response rating, Foxtail, Giant [6, 18]: 70 | Plant response rating, Foxtail, Giant [6, 23]: 90 | Barnyardgrass plant response rating [7, 21]: 90 | Plant response rating, Barnyardgrass [7, 22]: 90 | Plant response rating, Barnyardgrass [7, 18]: 50 | Plant response rating, Barnyardgrass [7, 23]: 90 | Corn plant response rating [8, 21]: 10 | Plant response rating, Corn [8, 22]: 50 | Plant response rating, Corn [8, 18]: 0 | Plant response rating, Corn [8, 23]: 0 | Pigweed plant response rating [9, 21]: 90 | Plant response rating, Pigweed [9, 22]: 100 | Plant response rating, Pigweed [9, 18]: 90 | Plant response rating, Pigweed [9, 23]: 100 | Crabgrass, Large plant response rating [10, 21]: 80 | Plant response rating, Crabgrass, Large [10, 22]: 90 | Plant response rating, Crabgrass, Large [10, 18]: 80 | Plant response rating, Crabgrass, Large [10, 23]: 90 | Morningglory plant response rating [11, 21]: 90 | Plant response rating, Morningglory [11, 22]: 100 | Plant response rating, Morningglory [11, 18]: 50 | Plant response rating, Morningglory [11, 23]: 90 | Wheat plant response rating [12, 21]: 0 | Plant response rating, Wheat [12, 22]: 0 | Plant response rating, Wheat [12, 18]: 0 | Plant response rating, Wheat [12, 23]: 0

Reference: patent publication US8952024B2, “Herbicidal pyrimidone derivatives” (E I du Pont de Nemours and Company, priority 2009, dated 2015)
